From patent publication US8530504B2, “Pyrazolothiazole compound” (Eisai R&D Management Co., Ltd., priority 2009, dated 2013)
pIC50: −log10 of the molar value.

Legend:
human CRFR1 = human CRFR1 (Homo sapiens (Human), UniProt P34998); assay: CRFR1 Binding Test; conditions: competition with 100 pM 125I-CRF, SPA method, membrane fraction of human CRFR1-expressing HEK293 cells; read-out: CRF1 receptor binding capacity IC50;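 also: nonspecific binding was determined with a 4,000-fold excess of unlabelled sauvagine and subtracted from every reading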
Sequence of human CRFR1 (P34998 24-415): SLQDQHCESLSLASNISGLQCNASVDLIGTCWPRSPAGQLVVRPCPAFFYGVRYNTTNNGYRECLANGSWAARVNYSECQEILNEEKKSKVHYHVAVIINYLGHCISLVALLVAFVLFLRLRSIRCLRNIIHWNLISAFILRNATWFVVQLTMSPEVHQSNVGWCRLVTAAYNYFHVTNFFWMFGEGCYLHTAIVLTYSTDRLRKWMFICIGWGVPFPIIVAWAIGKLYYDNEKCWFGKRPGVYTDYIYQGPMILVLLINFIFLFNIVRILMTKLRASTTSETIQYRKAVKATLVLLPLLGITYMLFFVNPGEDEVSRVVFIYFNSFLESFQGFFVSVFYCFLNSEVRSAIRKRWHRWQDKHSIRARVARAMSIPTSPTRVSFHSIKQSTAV

mice = assay: Light/dark box test in mice (anxiolytic effect); assay type: in vivo; conditions: for Effective Dose: dose significantly prolonging time spent in the light box vs vehicle, oral administration one hour prior to test, male Balb/c mice; for anxiolytic effect in the light/dark box test in mice: statistically significant at 30 mg/kg (oral administration)
Protocol: <Evaluation of Anxiolytic Effect in Light/Dark Box Test in Mice>
The light/dark box test in mice was carried out according to a modified method of Belzung C., Misslin R., and Vogel E. et al. (Reference; Behavioural effects of the benzodiazepine receptor partial agonist RO16-6028 in mice, Psychopharmacology, 97, 388-391, 1989). The test apparatus used in this test was a light/dark box including a covered black acrylic box (dark box; 15×10×20 cm), a white acrylic box with top opened (light box; 15×20×20 cm) and a black acrylic tunnel (10×7×4.5 cm) that connects the dark box and the light box and enables a mouse to freely move back and forth between the dark box and light box. In this test apparatus, however, a transparent acrylic plate was used for the front side (20×20 cm) and back side (20×20 cm) of the light box to allow observation of the behavior. After setting illumination so that the light intensity of the floor surface of the light box became 150 Lux, 5-week-old male Balb/c mice (purchased from Nihon Charles River) were introduced into the dark box and the test was started. In the test, the tested compound was suspended in 5% dimethyl sulfoxide, 5% Cremopor EL and 90% physiological saline and orally administered to the test animals one hour prior to the start of the test.
The time spent in the light box was measured as an index of the anxiolytic effect, with “spend in the light box” defined as the state in which all limbs of the mice were on the floor of the light box. […] The statistical significance between the vehicle-treated group and the test compound-treated groups was analyzed by one-way layout analysis of variance followed by Dunnett multiple comparison when multiple doses were set for the same test, and by the Mann-Whitney U test when only one dose was set.

[1] = Journal of Psychiatric Research, 34:171-181 (2000); cited from earlier work
rats [2] = conditions: cited from earlier work
high-anxiety rats = conditions: particularly in high-anxiety rats; cited from earlier work
rats [3] = conditions: cited from earlier work; remark: listed apart in the source
rats [4] = conditions: cited from earlier work; remark: listed apart in the source
rats [5] = conditions: cited from earlier work; remark: listed apart in the source
[6] = pretreatment; cited from earlier work
[7] = in vivo; cited from earlier work
[8] = in vivo; cited from earlier work; remark: listed apart in the source
Tg2576 transgenic mice = conditions: cited from earlier work
[9] = convulsion and epilepsy induced by CRF administration; cited from earlier work
[10] = in vivo; cited from earlier work; remark: listed apart in the source
IBS patients = conditions: cited from earlier work
ethanol withdrawal rats = conditions: cited from earlier work
[11] = in vivo; cited from earlier work; remark: listed apart in the source
[12] = in vivo; cited from earlier work; remark: listed apart in the source
[13] = in vivo; cited from earlier work; remark: listed apart in the source
[14] = in vivo; cited from earlier work; remark: listed apart in the source

Compound	pIC50 (human CRFR1)	Effective Dose (mice) [mg/kg]	anxiolytic effect in the light/dark box test in mice (mice)	also measured
COCc1cc(OC)c(-c2csc3c(N(CC4CC4)CC4C5COCC54)c(OC)nn23)c(OC)c1 (single isomer, unassigned; diastereomer 1) [Example 94, N-(Cyclopropylmethyl)-3-[2,6-dimethoxy-4-(methoxymethyl)phenyl]-6-methoxy-N-[3-oxabicyclo[3.1.0]hex-6-ylmethyl]-pyrazolo[5,1-b][1,3]thiazole-7-amine (diastereomer 1)]	7.35	30	excellent anxiolytic effects	
CCCN(CCC)c1cc(C)nc2c(-c3cnc(N(C)C)cc3C)c(C)nn12 [Example R121919]				ameliorating depression, depressive symptoms, anxiety [1]: effective for ameliorating depression, depressive symptoms, anxiety; anti-anxiety action (rats [2]): exhibits an anti-anxiety action; stress-related sleep disorder (high-anxiety rats): inhibits stress-related sleep disorder
COCc1cc(OC)c(-c2csc3c(N(CC4CCOCC4)CC4CC4)c(C)nn23)c(OC)c1 [Example 4, N-(Cyclopropylmethyl)-3-[2,6-dimethoxy-4-(methoxymethyl)phenyl]-6-methyl-N-(tetrahydro-2H-pyran-4-ylmethyl)pyrazolo[5,1-b][1,3]thiazole-7-amine]		30	excellent anxiolytic effects	
CCCCN(CC)c1nc(C)nc2c1c(C)cn2-c1c(C)cc(C)cc1C [CP-154526]				anti-depressant and anti-anxiety actions (rats [3]): exhibits anti-depressant and anti-anxiety actions; recurrence of stress-elicited alcohol-seeking behavior (rats [4]): inhibits recurrence of stress-elicited alcohol-seeking behavior; recurrence of stress-elicited drug (heroin, cocaine)-seeking behavior (rats [5]): inhibits recurrence of stress-elicited drug (heroin, cocaine)-seeking behavior; naltrexone-induced morphine withdrawal symptoms [6]: inhibits naltrexone-induced morphine withdrawal symptoms; gastric emptying retardation after surgery [7]: recovers gastric emptying retardation after surgery; learning disability following acute stress [8]: inhibits learning disability following acute stress
CCCN(CC1CC1)c1nc(C)nc(Nc2c(Cl)cc(Cl)cc2Cl)c1Cl [NBI27914]				increased levels of Aβ and Aβ plaque deposition induced by stress (Tg2576 transgenic mice): inhibits increased levels of Aβ and Aβ plaque deposition induced by stress; limbic system seizure [9]: inhibits limbic system seizure
CCN(c1nc(C)cc(N2CC=C(c3cccc(F)c3)CC2)n1)c1ccc(C(C)C)cc1SC [CRA1000]				stress-related reduction in food intake [10]: inhibit stress-related reduction in food intake
CCOCc1cc(OC)c(-c2csc3c(N(CCCOC)CC4CC4)c(OC)nn23)c(OC)c1 [Example 42, N-(Cyclopropylmethyl)-3-[4-(ethoxymethyl)-2,6-dimethoxyphenyl]-6-methoxy-N-(3-methoxypropyl)pyrazolo[5,1-b][1,3]thiazole-7-amine]	7.46	30	excellent anxiolytic effects	
COCc1cc(OC)c(-c2csc3c(N(CC(C)C)CC4(OC)CC4)c(OC)nn23)c(OC)c1 [Example 76, 3-[2,6-Dimethoxy-4-(methoxymethyl)phenyl]-N-isobutyl-6-methoxy-N-[(1-methoxycyclopropyl)methyl]pyrazolo[5,1-b][1,3]thiazole-7-amine]	7.43			
α-helical CRF (9-41)				colon intestinal hyperkinesis, abdominal pain and anxiety (IBS patients): inhibits colon intestinal hyperkinesis in IBS patients and reduces abdominal pain and anxiety; anxiety behavior (ethanol withdrawal rats): inhibits anxiety behavior; stress-related reduction in food intake [10]: inhibit stress-related reduction in food intake; stress-related increase in intracerebral amyloid-β [11]: suppresses stress-related increase in intracerebral amyloid-β; ischemic and excitotoxic encephalopathy [12]: inhibits ischemic and excitotoxic encephalopathy
CCCCN(CC)c1nc(C)nc2c1c(C)c(C)n2-c1c(C)cc(C)cc1C [antalarmin]				stress-induced hippocampal tau phosphorylation [13]: inhibits stress-induced hippocampal tau phosphorylation; hypertension induced by intraventricular administration of CRF [14]: inhibits hypertension induced by intraventricular administration of CRF

Now from value to compound, other results behind:

pIC50 (human CRFR1)	Compound	Effective Dose (mice) [mg/kg]	anxiolytic effect in the light/dark box test in mice (mice)	also measured
7.29	CCCN(c1c(OC)nn2c(-c3c(OC)cc(COC)cc3OC)csc12)C1CCOC1 (stereo not drawn) [Example 14, 3-[2,6-Dimethoxy-4-methoxymethylphenyl]-6-methoxy-N-propyl-N-(tetrahydrofuran-3-yl)pyrazolo[5,1-b][1,3]thiazole-7-amine]	30	excellent anxiolytic effects	
7.59	CCCN(c1c(OC)nn2c(-c3c(OC)cc(COCC)cc3OC)csc12)C1CCOC1 (stereo not drawn) [Example 46, 3-[4-(Ethoxymethyl)-2,6-dimethoxyphenyl]-6-methoxy-N-propyl-N-(tetrahydrofuran-3-yl)pyrazolo[5,1-b][1,3]thiazole-7-amine]	30	excellent anxiolytic effects	
7.04	COCc1cc(OC)c(-c2csc3c(N(CC4CC4)CC4COCOC4)c(OC)nn23)c(OC)c1 [Example 11, Cyclopropylmethyl-3[3-(2,6-dimethoxy-4-methoxymethyl-phenyl)-6-methoxy-pyrazolo[5,1-b][1,3]thiazol-7-yl]-[1,3]dioxan-5-ylmethyl-amine]	30	excellent anxiolytic effects	
7.28	COCCN(c1c(OC)nn2c(-c3c(OC)cc(C#N)cc3OC)csc12)C1CCCC1 [Example 74, 4-{7-[Cyclopentyl(2-methoxyethyl)amino]-6-methoxypyrazolo[5,1-b][1,3]thiazol-3-yl}-3,5-dimethoxybenzonitrile]			
7.35	COCc1cc(OC)c(-c2csc3c(N(CC(C)C)C4CCOC4)c(OC)nn23)c(OC)c1 (stereo not drawn) [Example 43, [3-(2,6-Dimethoxy-4-methoxymethylphenyl)-6-methoxy-pyrazolo[5,1-b][1,3]thiazol-7-yl]-isobutyl-(tetrahydrofuran-3-yl)-amine]			
7.21	CCN(c1c(OC)nn2c(-c3c(OC)cc(C4CC4)cc3OC)csc12)C1CCOCC1 [Example 64, 3-(4-Cyclopropyl-2,6-dimethoxyphenyl)-N-ethyl-6-methoxy-N-(tetrahydro-2H-pyran-4-yl)pyrazolo[5,1-b][1,3]thiazole-7-amine]			
7.37	COc1cc(C)cc(OC)c1-c1csc2c(N(CC3CC3)C3CCOCC3)c(OC)nn12 [Example 25, N-(Cyclopropylmethyl)-3-(2,6-dimethoxy-4-methylphenyl)-6-methoxy-N-(tetrahydro-2H-pyran-4-yl)pyrazolo[5,1-b][1,3]thiazole-7-amine]			
7.35	COCc1cc(OC)c(-c2csc3c(N(CC4CCC4)C4CCOC4)c(OC)nn23)c(OC)c1 (stereo not drawn) [Example 29, N-(Cyclobutylmethyl)-3-[2,6-dimethoxy-4-(methoxymethyl)phenyl]-6-methoxy-N-(tetrahydrofuran-3-yl)pyrazolo[5,1-b][1,3]thiazole-7-amine]			
